From ChEMBL document CHEMBL1123256, “Neuroleptics from the 4a,9b-trans-2,3,4,4a,5,9b-hexahydro-1H-pyrido[4,3-b]indole series. 3. Carboxamidoalkyl derivatives” (J Med Chem, 1986)
One block for each compound: values may come before it.

Experiments:
[1] = target: Dopamine receptor
Description: Ability to displace [3H]spiroperidol from labeled Dopamine receptor of corpus striatum

[2] = test system: Rattus norvegicus; experiment: Compound was tested in vivo for its ability to antagonize the stereotypy in rats induced by d-amphetamine sulfate 24 hr later of the treatment; value ranges from 0.32-1.0; format: functional
[3] = test system: Rattus norvegicus; experiment: Compound was tested in vivo for its ability to antagonize the stereotypy in rats induced by d-amphetamine sulfate 1 hr later of the treatment; value ranges from 0.03-0.1; format: functional
[4] = target: Dopamine receptor; remark: listed apart in the source
Description: Compound was tested in vitro for its ability to displace [3H]spiroperidol from labeled dopamine receptors of corpus striatum

[5] = test system: Rattus norvegicus; experiment: Compound was tested in vivo for its ability to antagonize the stereotypy in rats induced by d-amphetamine sulfate 5 h later of the treatment; value ranges from 0.32-1.0; format: functional
[6] = test system: Rattus norvegicus; experiment: Compound was tested in vivo for its ability to antagonize the stereotypy in rats induced by d-amphetamine sulfate 5 hr later of the treatment; value ranges from 0.1-0.032; format: functional
[7] = test system: Rattus norvegicus; experiment: Compound was tested in vivo for its ability to antagonize the stereotypy in rats induced by d-amphetamine sulfate 1 hr later of the treatment; value ranges from 0.1-0.32; format: functional
[8] = target: Dopamine receptor; experiment: Compound was tested in vitro for its ability to displace [3H]spiroperidol from labeled Dopamine receptor of corpus striatum; format: functional

Structure (SMILES): CC(=O)NCCCN1CC[C@@H]2C(C1)c1cc(F)ccc1N2c1ccc(F)cc1.Cl (some centres not stated)
IC50 [1]: 10 nM
ED50 [2]: 0.32 mg/kg
ED50 [3]: 0.03 mg/kg

Structure (SMILES): CC(C(=O)CN1CC[C@@H]2C(C1)c1cc(F)ccc1N2c1ccc(F)cc1)c1ncco1.Cl (some centres not stated)
IC50 [1]: 10 nM

Structure (SMILES): Cl.O=C1c2ccccc2C(=O)N1CCCCN1CC[C@@H]2C(C1)c1cc(F)ccc1N2c1ccc(F)cc1 (some centres not stated)
IC50 [4]: 27 nM

Structure (SMILES): Cl.O=c1oc2ccccc2n1CCCCN1CC[C@@H]2C(C1)c1cc(F)ccc1N2c1ccc(F)cc1 (some centres not stated)
IC50 [4]: 28 nM
ED50 [5]: 0.32 mg/kg

Structure (SMILES): Cl.O=C1CCCCN1CCCCN1CC[C@@H]2C(C1)c1cc(F)ccc1N2c1ccc(F)cc1 (some centres not stated)
IC50 [4]: 6.2 nM
ED50 [6]: 0.032 mg/kg

Structure (SMILES): Cl.N#CCCCN1CC[C@@H]2C(C1)c1cc(F)ccc1N2c1ccc(F)cc1 (some centres not stated)
ED50 [7]: 0.1 mg/kg

Next, values leading:

IC50 [1]: 15 nM
Structure (SMILES): CC(=O)NCCCCN1CC[C@@H]2C(C1)c1cc(F)ccc1N2c1ccc(F)cc1.Cl (some centres not stated)

IC50 [1]: 16 nM
Structure (SMILES): CC(=O)NCCN1CC[C@@H]2C(C1)c1cc(F)ccc1N2c1ccc(F)cc1.Cl (some centres not stated)

IC50 [1]: 8 nM
Structure (SMILES): CC(=O)NCCCCCCN1CC[C@@H]2C(C1)c1cc(F)ccc1N2c1ccc(F)cc1.Cl (some centres not stated)

IC50 [1]: 9 nM
Structure (SMILES): CC(=O)NCCCCCN1CC[C@@H]2C(C1)c1cc(F)ccc1N2c1ccc(F)cc1.Cl (some centres not stated)

IC50 [1]: 28 nM
Structure (SMILES): Cl.NCCCCN1CC[C@@H]2C(C1)c1cc(F)ccc1N2c1ccc(F)cc1 (some centres not stated)

IC50 [1]: 11 nM
Structure (SMILES): CCOC(=O)NCCCCN1CC[C@@H]2C(C1)c1cc(F)ccc1N2c1ccc(F)cc1.Cl (some centres not stated)

IC50 [8]: 9 nM
Structure (SMILES): CC(=O)NCCCCCCCN1CC[C@@H]2C(C1)c1cc(F)ccc1N2c1ccc(F)cc1.Cl (some centres not stated)
